Results: ChEMBL document CHEMBL2424532, “Investigation of an F-18 oxytocin receptor selective ligand via PET imaging” (Bioorg Med Chem Lett, 2013)

Columns and labels:
[1] = Drug uptake in cynomolgus monkey choroid plexus at 5.5 mCi after 2 hrs in presence of unlabeled compound administered 45 mins before tracer challenge; format: ADME, Macaca fascicularis; settings: in vivo
[2] = system: Brain; assay: Drug uptake in Sprague-Dawley rat brain at 280 uCi after 20 mins by PET analysis; format: ADME, tissue-based; settings: in vivo
[3] = Lipophilicity, log P of the compound at pH 7.4; format: physicochemical; settings: buffer
[4] = Drug uptake in cynomolgus monkey middle cerebral artery of cerebral cortex at 5.5 mCi up to 15 mins; format: ADME, tissue-based, Macaca fascicularis; settings: in vivo, 0.25 h
[5] = system: Brain; assay: Drug uptake in Sprague-Dawley rat brain at 280 uCi up to 20 mins by PET analysis; format: ADME, tissue-based; settings: in vivo
[6] = Drug uptake in cynomolgus monkey choroid plexus at 5.5 mCi after 2 hrs in presence of unlabeled compound administered 30 mins before tracer challenge; format: ADME, Macaca fascicularis; settings: in vivo
[7] = molecular target: T1, Oxytocin receptor (Homo sapiens, UniProt P30559); assay: Binding affinity to human OTR by competitive binding assay
T1 sequence (P30559 whole entry): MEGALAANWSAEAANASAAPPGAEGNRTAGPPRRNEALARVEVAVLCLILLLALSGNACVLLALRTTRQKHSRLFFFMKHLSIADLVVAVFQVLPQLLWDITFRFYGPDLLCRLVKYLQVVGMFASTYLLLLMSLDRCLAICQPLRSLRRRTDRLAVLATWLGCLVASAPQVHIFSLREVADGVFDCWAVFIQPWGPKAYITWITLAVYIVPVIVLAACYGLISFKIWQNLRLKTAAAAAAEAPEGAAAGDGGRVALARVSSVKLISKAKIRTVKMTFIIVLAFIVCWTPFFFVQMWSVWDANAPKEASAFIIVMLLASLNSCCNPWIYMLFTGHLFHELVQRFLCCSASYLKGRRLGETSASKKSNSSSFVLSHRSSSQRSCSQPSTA

[8] = molecular target: Serotonin (5-HT) receptor; assay: Binding affinity to human 5HTB receptor by competitive binding assay; format: protein assay
[9] = molecular target: T2, Vasopressin V1b receptor (Homo sapiens, UniProt P47901); assay: Binding affinity to human V1BR by competitive binding assay
T2 sequence (P47901 whole entry): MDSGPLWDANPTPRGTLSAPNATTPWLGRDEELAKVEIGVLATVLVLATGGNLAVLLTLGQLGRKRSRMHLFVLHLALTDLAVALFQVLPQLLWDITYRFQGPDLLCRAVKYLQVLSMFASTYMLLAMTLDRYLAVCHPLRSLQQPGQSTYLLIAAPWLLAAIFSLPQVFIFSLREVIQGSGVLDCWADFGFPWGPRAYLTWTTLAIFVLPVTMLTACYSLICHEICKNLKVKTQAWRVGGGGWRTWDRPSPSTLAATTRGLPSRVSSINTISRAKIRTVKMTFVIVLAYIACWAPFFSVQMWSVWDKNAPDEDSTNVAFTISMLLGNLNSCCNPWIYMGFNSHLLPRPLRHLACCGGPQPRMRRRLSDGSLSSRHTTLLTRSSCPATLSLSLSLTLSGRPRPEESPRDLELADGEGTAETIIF

[10] = molecular target: T3, Alpha-1A adrenergic receptor (Homo sapiens, UniProt P35348); assay: Binding affinity to human adrenergic alpha-1A receptor by competitive binding assay
T3 sequence (P35348 whole entry): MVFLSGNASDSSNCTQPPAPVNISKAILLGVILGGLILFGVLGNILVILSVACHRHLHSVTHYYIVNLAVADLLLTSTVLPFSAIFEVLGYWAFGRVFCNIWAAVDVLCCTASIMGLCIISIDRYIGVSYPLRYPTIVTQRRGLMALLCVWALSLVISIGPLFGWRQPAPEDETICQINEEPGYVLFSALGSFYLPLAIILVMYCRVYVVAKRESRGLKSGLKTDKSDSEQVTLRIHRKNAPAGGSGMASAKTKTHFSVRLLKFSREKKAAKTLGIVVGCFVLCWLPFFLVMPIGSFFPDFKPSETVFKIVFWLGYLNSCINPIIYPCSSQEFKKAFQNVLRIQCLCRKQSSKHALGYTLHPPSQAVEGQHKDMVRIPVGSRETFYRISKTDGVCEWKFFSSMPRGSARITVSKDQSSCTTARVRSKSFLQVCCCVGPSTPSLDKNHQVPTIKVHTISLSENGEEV

[11] = molecular target: 5-hydroxytryptamine receptor 1B (Homo sapiens, UniProt P28222); assay: Binding affinity to human 5HT1B receptor by competitive binding assay
[12] = molecular target: 5-hydroxytryptamine receptor 6 (Homo sapiens, UniProt P50406); assay: Binding affinity to human 5HT6 receptor by competitive binding assay
[13] = molecular target: Vasopressin V1a receptor (Homo sapiens, UniProt P37288); assay: Binding affinity to human V1AR by competitive binding assay
[14] = molecular target: Vasopressin V2 receptor (Homo sapiens, UniProt P30518); assay: Binding affinity to human V2R by competitive binding assay
[15] = molecular target: T4, Muscarinic acetylcholine receptor M4 (Homo sapiens, UniProt P08173); assay: Binding affinity to human muscarinic M4 receptor by competitive binding assay
T4 sequence (P08173 whole entry): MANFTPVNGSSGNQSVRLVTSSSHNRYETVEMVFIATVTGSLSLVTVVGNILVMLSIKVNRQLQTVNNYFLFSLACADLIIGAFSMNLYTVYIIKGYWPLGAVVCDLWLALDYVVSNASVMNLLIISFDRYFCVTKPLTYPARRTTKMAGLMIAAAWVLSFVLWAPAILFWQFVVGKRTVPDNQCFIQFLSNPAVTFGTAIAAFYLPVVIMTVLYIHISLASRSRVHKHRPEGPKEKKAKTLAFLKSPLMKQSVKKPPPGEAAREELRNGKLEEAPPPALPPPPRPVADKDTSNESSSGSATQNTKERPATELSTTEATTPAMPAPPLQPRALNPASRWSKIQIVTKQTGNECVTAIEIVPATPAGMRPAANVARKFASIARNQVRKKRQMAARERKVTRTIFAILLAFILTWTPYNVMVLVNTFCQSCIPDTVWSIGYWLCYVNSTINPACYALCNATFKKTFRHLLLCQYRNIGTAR

[16] = molecular target: D(3) dopamine receptor (Homo sapiens, UniProt P35462); assay: Binding affinity to human dopamine D3 receptor by competitive binding assay
[17] = molecular target: 5-hydroxytryptamine receptor 2B (Homo sapiens, UniProt P41595); assay: Binding affinity to human 5HT2B receptor by competitive binding assay
Sequence of 5-hydroxytryptamine receptor 2B (P41595 whole entry): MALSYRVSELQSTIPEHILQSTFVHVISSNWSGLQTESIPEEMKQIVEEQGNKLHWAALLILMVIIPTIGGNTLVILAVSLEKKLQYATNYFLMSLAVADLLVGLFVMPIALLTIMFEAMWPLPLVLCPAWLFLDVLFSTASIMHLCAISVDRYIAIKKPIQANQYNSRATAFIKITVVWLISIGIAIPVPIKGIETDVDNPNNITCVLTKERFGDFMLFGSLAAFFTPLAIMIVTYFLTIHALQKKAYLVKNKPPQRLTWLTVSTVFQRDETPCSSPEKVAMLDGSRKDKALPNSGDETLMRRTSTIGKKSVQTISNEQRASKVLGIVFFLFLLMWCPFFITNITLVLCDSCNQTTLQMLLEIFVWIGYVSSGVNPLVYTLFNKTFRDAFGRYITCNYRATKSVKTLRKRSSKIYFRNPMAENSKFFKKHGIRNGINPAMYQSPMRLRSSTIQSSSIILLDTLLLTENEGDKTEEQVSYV

Sequence of 5-hydroxytryptamine receptor 1B (P28222 whole entry): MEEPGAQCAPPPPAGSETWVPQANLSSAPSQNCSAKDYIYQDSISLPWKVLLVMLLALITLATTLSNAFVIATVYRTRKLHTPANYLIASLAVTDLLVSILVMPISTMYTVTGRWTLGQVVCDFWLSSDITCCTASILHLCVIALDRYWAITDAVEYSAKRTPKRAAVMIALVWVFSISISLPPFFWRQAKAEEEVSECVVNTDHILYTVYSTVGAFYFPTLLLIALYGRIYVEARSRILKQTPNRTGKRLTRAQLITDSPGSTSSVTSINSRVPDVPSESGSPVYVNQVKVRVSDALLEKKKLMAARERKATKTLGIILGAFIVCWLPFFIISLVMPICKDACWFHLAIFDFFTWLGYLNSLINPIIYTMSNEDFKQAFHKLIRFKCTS
Sequence of D(3) dopamine receptor (P35462 whole entry): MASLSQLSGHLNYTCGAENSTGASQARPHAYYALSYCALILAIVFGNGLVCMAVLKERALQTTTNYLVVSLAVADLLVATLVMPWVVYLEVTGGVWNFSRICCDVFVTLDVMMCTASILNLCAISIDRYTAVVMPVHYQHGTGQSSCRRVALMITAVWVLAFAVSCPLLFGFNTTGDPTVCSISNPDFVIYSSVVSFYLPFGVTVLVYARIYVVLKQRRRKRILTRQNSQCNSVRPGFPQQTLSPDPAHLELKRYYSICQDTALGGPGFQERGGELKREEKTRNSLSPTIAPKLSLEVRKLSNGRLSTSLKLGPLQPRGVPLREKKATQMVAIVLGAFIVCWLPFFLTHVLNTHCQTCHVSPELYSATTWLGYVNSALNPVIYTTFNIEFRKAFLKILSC
Sequence of 5-hydroxytryptamine receptor 6 (P50406 whole entry): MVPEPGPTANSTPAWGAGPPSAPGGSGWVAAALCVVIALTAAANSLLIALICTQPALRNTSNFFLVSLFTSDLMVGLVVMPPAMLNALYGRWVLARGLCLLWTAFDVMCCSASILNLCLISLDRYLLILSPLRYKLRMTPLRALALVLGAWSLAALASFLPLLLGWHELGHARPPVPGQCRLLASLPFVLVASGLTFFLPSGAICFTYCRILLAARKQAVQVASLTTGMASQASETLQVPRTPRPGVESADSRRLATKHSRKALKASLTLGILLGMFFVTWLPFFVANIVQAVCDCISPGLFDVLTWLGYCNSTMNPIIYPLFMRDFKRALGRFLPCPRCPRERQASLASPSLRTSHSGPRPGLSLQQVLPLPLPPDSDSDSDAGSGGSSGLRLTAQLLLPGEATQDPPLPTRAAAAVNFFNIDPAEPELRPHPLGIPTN
Sequence of Vasopressin V1a receptor (P37288 whole entry): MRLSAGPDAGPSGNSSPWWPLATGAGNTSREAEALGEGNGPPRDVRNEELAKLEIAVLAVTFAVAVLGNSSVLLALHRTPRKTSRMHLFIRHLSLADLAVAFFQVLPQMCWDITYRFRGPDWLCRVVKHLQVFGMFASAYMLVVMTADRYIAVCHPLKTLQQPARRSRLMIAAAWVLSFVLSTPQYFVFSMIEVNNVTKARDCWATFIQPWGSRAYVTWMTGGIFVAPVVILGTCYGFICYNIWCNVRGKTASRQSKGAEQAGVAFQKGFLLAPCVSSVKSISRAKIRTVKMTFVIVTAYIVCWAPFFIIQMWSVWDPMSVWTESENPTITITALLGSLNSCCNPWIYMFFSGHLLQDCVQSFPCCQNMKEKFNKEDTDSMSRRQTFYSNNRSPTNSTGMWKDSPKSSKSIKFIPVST
Sequence of Vasopressin V2 receptor (P30518 whole entry): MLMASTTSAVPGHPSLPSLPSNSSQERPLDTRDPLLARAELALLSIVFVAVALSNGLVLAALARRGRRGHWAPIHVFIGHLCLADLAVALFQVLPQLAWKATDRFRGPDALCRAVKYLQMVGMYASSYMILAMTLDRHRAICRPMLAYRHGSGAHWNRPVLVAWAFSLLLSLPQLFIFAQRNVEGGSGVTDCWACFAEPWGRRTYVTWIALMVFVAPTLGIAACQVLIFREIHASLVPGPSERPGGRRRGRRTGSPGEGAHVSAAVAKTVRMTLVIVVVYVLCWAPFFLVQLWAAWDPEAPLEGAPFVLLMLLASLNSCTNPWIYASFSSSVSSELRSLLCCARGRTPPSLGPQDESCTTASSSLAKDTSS

SMILES: O=C(Cc1ccc(OC2CCNCC2)cc1OCC[18F])N1CCC(N2C(=O)CCc3ccccc32)CC1
- Drug uptake [1]: Active
- Drug uptake [2]: Not Active
- logD [3]: 1.57
- Drug uptake [4]: Active
- Drug uptake [5]: Active
- Drug uptake [6]: Active

SMILES: Cl.O=C(Cc1ccc(OC2CCNCC2)cc1OCCF)N1CCC(N2C(=O)CCc3ccccc32)CC1
- Ki [7]: 15 nM
- Ki [8]: 1270 nM
- Ki [9]: > 10 µM
- Ki [10]: 80 nM
- Ki [11]: 700 nM
- Ki [12]: 187 nM
- Ki [13]: 5.6 µM
- Ki [14]: 8.7 µM
- Ki [15]: 1270 nM
- Ki [16]: 6.79 µM
- Ki [17]: 500 nM

SMILES: CS(=O)(=O)N1CCC(Oc2ccc(CC(=O)N3CCC(N4C(=O)CCc5ccccc54)CC3)c(OCCF)c2)CC1
- Ki [9]: > 10 µM
